Measured values taken from ChEMBL document CHEMBL3044779, “The action of herbicides on fatty acid biosynthesis and elongation in barley and cucumber” (Pest Manag Sci, 2010).
The source made the active and inactive calls. The rule behind the calls is not given here.

Experiments:
[1] = test system: Cucumis sativus; test: Inhibition of fatty acid synthesis in Cucumis sativus (cucumber) using [14C]malonate assessed as inhibition of [14C]-labeled 18C fatty acid production at 200 uM after 3 hr by liquid scintillation counting; format: functional, organism-based
[2] = test system: Cucumis sativus; test: Inhibition of fatty acid synthesis in Cucumis sativus (cucumber) using [14C]acetate assessed as [14C]-labeled 22C fatty acid level at 200 uM after 3 hr by liquid scintillation counting (reference value: 17.9 +/- 2.5%); format: functional; design: scale not given: the % may be the effect or the level left
[3] = test system: Hordeum vulgare; test: Inhibition of fatty acid synthesis in Hordeum vulgare (barley) using [14C]acetate assessed as [14C]-labeled 16C fatty acid level at 200 uM after 3 hr by liquid scintillation counting (reference value: 29.5 +/- 1.3%); format: functional; design: scale not given: the % may be the effect or the level left
[4] = test system: Cucumis sativus; test: Inhibition of fatty acid synthesis in Cucumis sativus (cucumber) using [14C]acetate assessed as [14C]-labeled 18C fatty acid level at 200 uM after 3 hr by liquid scintillation counting (reference value: 41.2 +/- 1.1%); format: functional; design: scale not given: the % may be the effect or the level left
[5] = test system: Cucumis sativus; test: (§1) Inhibition of fatty acid synthesis in Cucumis sativus (cucumber) assessed as inhibition of [14C]acetate incoporation in total fatty acids at 200 uM measured as total disintegration per g of fresh weight after 3 hr by liquid scintillation counting (reference value: 6.4 +/- 1.2 dpm x 10^6 g'1 fresh wt); format: functional
[6] = test system: Hordeum vulgare; test: Inhibition of fatty acid synthesis in Hordeum vulgare (barley) using [14C]malonate assessed as inhibition of [14C]-labeled 24C fatty acid production at 200 uM after 3 hr by liquid scintillation counting; format: functional, organism-based
[7] = test system: Hordeum vulgare; test: Inhibition of fatty acid synthesis in Hordeum vulgare (barley) assessed as inhibition of [14C]acetate incoporation in total fatty acids at 200 uM measured as total disintegration per g of fresh weight after 3 hr by liquid scintillation counting (reference value: 5.7 +/- 0.5 dpm x 10^6 g'1 fresh wt); format: functional
[8] = test system: Cucumis sativus; test: Inhibition of fatty acid synthesis in Cucumis sativus (cucumber) using [14C]malonate assessed as inhibition of [14C]-labeled 24C fatty acid production at 200 uM after 3 hr by liquid scintillation counting; format: functional, organism-based
[9] = test system: Cucumis sativus; test: Inhibition of fatty acid synthesis in Cucumis sativus (cucumber) using [14C]acetate assessed as [14C]-labeled 16C fatty acid level at 200 uM after 3 hr by liquid scintillation counting (reference value: 29.2 +/- 3.5%); format: functional; design: scale not given: the % may be the effect or the level left
[10] = test system: Hordeum vulgare; test: Inhibition of fatty acid synthesis in Hordeum vulgare (barley) using [14C]malonate assessed as inhibition of [14C]-labeled 20C fatty acid production at 200 uM after 3 hr by liquid scintillation counting; format: functional, organism-based
[11] = test system: Hordeum vulgare; test: Inhibition of fatty acid synthesis in Hordeum vulgare (barley) using [14C]acetate assessed as [14C]-labeled 22C fatty acid level at 200 uM after 3 hr by liquid scintillation counting (reference value: 5.5 +/- 0.2%); format: functional; design: scale not given: the % may be the effect or the level left
[12] = test system: Cucumis sativus; test: Inhibition of fatty acid synthesis in Cucumis sativus (cucumber) using [14C]acetate assessed as [14C]-labeled 24C fatty acid level at 200 uM after 3 hr by liquid scintillation counting (reference value: 6.5 +/- 1%); format: functional; design: scale not given: the % may be the effect or the level left
[13] = test system: Hordeum vulgare; test: Inhibition of fatty acid synthesis in Hordeum vulgare (barley) using [14C]malonate assessed as inhibition of [14C]-labeled 22C fatty acid production at 200 uM after 3 hr by liquid scintillation counting; format: functional, organism-based
[14] = test system: Cucumis sativus; test: Inhibition of fatty acid synthesis in Cucumis sativus (cucumber) using [14C]acetate assessed as [14C]-labeled 20C fatty acid level at 200 uM after 3 hr by liquid scintillation counting (reference value: 5.1 +/- 0.7%); format: functional; design: scale not given: the % may be the effect or the level left
[15] = test system: Cucumis sativus; test: Inhibition of fatty acid synthesis in Cucumis sativus (cucumber) using [14C]malonate assessed as inhibition of [14C]-labeled 20C fatty acid production at 200 uM after 3 hr by liquid scintillation counting; format: functional, organism-based
[16] = test system: Cucumis sativus; test: Inhibition of fatty acid synthesis in Cucumis sativus (cucumber) using [14C]malonate assessed as inhibition of [14C]-labeled 16C fatty acid production at 200 uM after 3 hr by liquid scintillation counting; format: functional, organism-based
[17] = test system: Hordeum vulgare; test: Inhibition of fatty acid synthesis in Hordeum vulgare (barley) assessed as inhibition of [14C]malonate incoporation in total fatty acids at 200 uM measured after 3 hr by liquid scintillation counting; format: functional, organism-based
[18] = test system: Cucumis sativus; test: Inhibition of fatty acid synthesis in Cucumis sativus (cucumber) assessed as inhibition of [14C]malonate incoporation in total fatty acids at 200 uM measured after 3 hr by liquid scintillation counting; format: functional, organism-based
[19] = test system: Cucumis sativus; test: Inhibition of fatty acid synthesis in Cucumis sativus (cucumber) using [14C]malonate assessed as inhibition of [14C]-labeled 22C fatty acid production at 200 uM after 3 hr by liquid scintillation counting; format: functional, organism-based
[20] = test system: Hordeum vulgare; test: Inhibition of fatty acid synthesis in Hordeum vulgare (barley) using [14C]acetate assessed as [14C]-labeled 20C fatty acid level at 200 uM after 3 hr by liquid scintillation counting (reference value: 4.7 +/- 1.6%); format: functional; design: scale not given: the % may be the effect or the level left
[21] = test system: Hordeum vulgare; test: Inhibition of fatty acid synthesis in Hordeum vulgare (barley) using [14C]acetate assessed as [14C]-labeled 18C fatty acid level at 200 uM after 3 hr by liquid scintillation counting (reference value: 60.3 +/- 1.3%); format: functional; design: scale not given: the % may be the effect or the level left
[22] = test system: Hordeum vulgare; test: Inhibition of fatty acid synthesis in Hordeum vulgare (barley) using [14C]malonate assessed as inhibition of [14C]-labeled 16C fatty acid production at 200 uM after 3 hr by liquid scintillation counting; format: functional, organism-based
[23] = test system: Hordeum vulgare; test: Inhibition of fatty acid synthesis in Hordeum vulgare (barley) using [14C]malonate assessed as inhibition of [14C]-labeled 18C fatty acid production at 200 uM after 3 hr by liquid scintillation counting; format: functional, organism-based
[24] = test system: Cucumis sativus; test: Inhibition of fatty acid synthesis in Cucumis sativus (cucumber) using [14C]malonate assessed as inhibition of [14C]-labeled 22C fatty acid production at 300 uM after 3 hr by liquid scintillation counting; format: functional, organism-based
[25] = test system: Hordeum vulgare; test: Inhibition of fatty acid synthesis in Hordeum vulgare (barley) using [14C]acetate assessed as [14C]-labeled 16C fatty acid level at 300 uM after 3 hr by liquid scintillation counting (reference value: 29.5 +/- 1.3%); format: functional; design: scale not given: the % may be the effect or the level left
[26] = test system: Cucumis sativus; test: Inhibition of fatty acid synthesis in Cucumis sativus (cucumber) using [14C]malonate assessed as inhibition of [14C]-labeled 18C fatty acid production at 300 uM after 3 hr by liquid scintillation counting; format: functional, organism-based
[27] = test system: Cucumis sativus; test: as §1, with “300” for “200”; format: functional
[28] = test system: Cucumis sativus; test: Inhibition of fatty acid synthesis in Cucumis sativus (cucumber) using [14C]acetate assessed as [14C]-labeled 22C fatty acid level at 300 uM after 3 hr by liquid scintillation counting (reference value: 17.9 +/- 2.5%); format: functional; design: scale not given: the % may be the effect or the level left
[29] = test system: Hordeum vulgare; test: Inhibition of fatty acid synthesis in Hordeum vulgare (barley) using [14C]acetate assessed as [14C]-labeled 22C fatty acid level at 300 uM after 3 hr by liquid scintillation counting (reference value: 5.5 +/- 0.2%); format: functional; design: scale not given: the % may be the effect or the level left
[30] = test system: Cucumis sativus; test: Inhibition of fatty acid synthesis in Cucumis sativus (cucumber) using [14C]malonate assessed as inhibition of [14C]-labeled 20C fatty acid production at 300 uM after 3 hr by liquid scintillation counting; format: functional, organism-based
[31] = test system: Cucumis sativus; test: Inhibition of fatty acid synthesis in Cucumis sativus (cucumber) assessed as inhibition of [14C]malonate incoporation in total fatty acids at 300 uM measured after 3 hr by liquid scintillation counting; format: functional, organism-based
[32] = test system: Hordeum vulgare; test: Inhibition of fatty acid synthesis in Hordeum vulgare (barley) assessed as inhibition of [14C]acetate incoporation in total fatty acids at 300 uM measured as total disintegration per g of fresh weight after 3 hr by liquid scintillation counting (reference value: 5.7 +/- 0.5 dpm x 10^6 g'1 fresh wt); format: functional
[33] = test system: Hordeum vulgare; test: Inhibition of fatty acid synthesis in Hordeum vulgare (barley) assessed as inhibition of [14C]malonate incoporation in total fatty acids at 300 uM measured after 3 hr by liquid scintillation counting; format: functional, organism-based
[34] = test system: Cucumis sativus; test: Inhibition of fatty acid synthesis in Cucumis sativus (cucumber) using [14C]acetate assessed as [14C]-labeled 16C fatty acid level at 300 uM after 3 hr by liquid scintillation counting (reference value: 29.2 +/- 3.5%); format: functional; design: scale not given: the % may be the effect or the level left
[35] = test system: Hordeum vulgare; test: Inhibition of fatty acid synthesis in Hordeum vulgare (barley) using [14C]acetate assessed as [14C]-labeled 20C fatty acid level at 300 uM after 3 hr by liquid scintillation counting (reference value: 4.7 +/- 1.6%); format: functional; design: scale not given: the % may be the effect or the level left
[36] = test system: Cucumis sativus; test: Inhibition of fatty acid synthesis in Cucumis sativus (cucumber) using [14C]malonate assessed as inhibition of [14C]-labeled 16C fatty acid production at 300 uM after 3 hr by liquid scintillation counting; format: functional, organism-based
[37] = test system: Cucumis sativus; test: Inhibition of fatty acid synthesis in Cucumis sativus (cucumber) using [14C]acetate assessed as [14C]-labeled 18C fatty acid level at 300 uM after 3 hr by liquid scintillation counting (reference value: 41.2 +/- 1.1%); format: functional; design: scale not given: the % may be the effect or the level left
[38] = test system: Hordeum vulgare; test: Inhibition of fatty acid synthesis in Hordeum vulgare (barley) using [14C]malonate assessed as inhibition of [14C]-labeled 22C fatty acid production at 300 uM after 3 hr by liquid scintillation counting; format: functional, organism-based
[39] = test system: Hordeum vulgare; test: Inhibition of fatty acid synthesis in Hordeum vulgare (barley) using [14C]malonate assessed as inhibition of [14C]-labeled 24C fatty acid production at 300 uM after 3 hr by liquid scintillation counting; format: functional, organism-based
[40] = test system: Hordeum vulgare; test: Inhibition of fatty acid synthesis in Hordeum vulgare (barley) using [14C]malonate assessed as inhibition of [14C]-labeled 20C fatty acid production at 300 uM after 3 hr by liquid scintillation counting; format: functional, organism-based
[41] = test system: Hordeum vulgare; test: Inhibition of fatty acid synthesis in Hordeum vulgare (barley) using [14C]malonate assessed as inhibition of [14C]-labeled 16C fatty acid production at 300 uM after 3 hr by liquid scintillation counting; format: functional, organism-based
[42] = test system: Cucumis sativus; test: Inhibition of fatty acid synthesis in Cucumis sativus (cucumber) using [14C]malonate assessed as inhibition of [14C]-labeled 24C fatty acid production at 300 uM after 3 hr by liquid scintillation counting; format: functional, organism-based
[43] = test system: Hordeum vulgare; test: Inhibition of fatty acid synthesis in Hordeum vulgare (barley) using [14C]acetate assessed as [14C]-labeled 18C fatty acid level at 300 uM after 3 hr by liquid scintillation counting (reference value: 60.3 +/- 1.3%); format: functional; design: scale not given: the % may be the effect or the level left
[44] = test system: Hordeum vulgare; test: Inhibition of fatty acid synthesis in Hordeum vulgare (barley) using [14C]malonate assessed as inhibition of [14C]-labeled 18C fatty acid production at 300 uM after 3 hr by liquid scintillation counting; format: functional, organism-based
[45] = test system: Cucumis sativus; test: Inhibition of fatty acid synthesis in Cucumis sativus (cucumber) using [14C]acetate assessed as [14C]-labeled 24C fatty acid level at 300 uM after 3 hr by liquid scintillation counting (reference value: 6.5 +/- 1%); format: functional; design: scale not given: the % may be the effect or the level left
[46] = test system: Cucumis sativus; test: Inhibition of fatty acid synthesis in Cucumis sativus (cucumber) using [14C]acetate assessed as [14C]-labeled 20C fatty acid level at 300 uM after 3 hr by liquid scintillation counting (reference value: 5.1 +/- 0.7%); format: functional; design: scale not given: the % may be the effect or the level left

In the case of `Cc1ccccc1CO[C@H]1C[C@]2(C(C)C)CC[C@@]1(C)O2` (relative stereo) [REL-CINMETHYLIN], the inhibition [1] is reported as “inactive”, the Activity [2] is reported as 13.4% and the Activity [3] is reported as 20.9%. The Activity [4] was 48.6%, the Activity [5] was 8.4 ×10⁶ dpm and the inhibition [6] was “inactive”. The Activity [7] was 5.1 ×10⁶ dpm, the inhibition [8] was “inactive” and the Activity [9] was 28.9%. The inhibition [10] was “inactive”, the Activity [11] was 5.8% and the Activity [12] was 4.2%. For the same molecule, the inhibition [13] was “inactive”, the Activity [14] was 4.8% and the inhibition [15] was “inactive”. For the same molecule, the inhibition [16] was “inactive”, the inhibition [17] was “inactive” and the inhibition [18] was “inactive”. The inhibition [19] was “inactive”, the Activity [20] was 5.7% and the Activity [21] was 67.7%. The inhibition [22] was “inactive” and the inhibition [23] was “inactive”.
With `CN(C)C(=O)C(c1ccccc1)c1ccccc1` [DIPHENAMIDE] the inhibition [24] was “inactive”, the Activity [25] was 18.4% and the inhibition [26] was “inactive”. The Activity [27] was 6.9 ×10⁶ dpm, the Activity [28] was 13.9% and the Activity [29] was 7.6%. The inhibition [30] was “inactive”, the inhibition [31] was “inactive” and the Activity [32] was 4 ×10⁶ dpm. The inhibition [33] was “inactive”, the Activity [34] was 26.8% and the Activity [35] was 7.9%. The inhibition [36] was “inactive”, the Activity [37] was 48.1% and the inhibition [38] was “inactive”. The inhibition [39] was “inactive”, the inhibition [40] was “inactive” and the inhibition [41] was “inactive”. For the same molecule, the inhibition [42] was “inactive”, the Activity [43] was 66.1% and the inhibition [44] was “inactive”. The Activity [45] was 5.1% and the Activity [46] was 6.1%.
